Experimental data published in patent publication US20260076885A1, “Complexation of Oxybenzone with C-methylresorcin[4]arene” (University of Cincinnati, priority 2021, published 2026).

Assays:
[1] = background, cited from earlier work
in vitro = in vitro ADME, human
Description: The skin permeation of OXB was evaluated using 6% OXB formulations with and without RsC1 in a Franz diffusion cell (FIG. 9 and Table 1).
The amounts of OXB remaining on the skin surface, inside the skin, and on the surface of the donor chamber cap were also determined at the end of the skin permeation experiments. The average total recovery of OXB from the permeation study was approximately 75%.
In addition, the amount of RsC1 that permeated through the skin to the receptor chamber was determined using an HPLC assay.
Rinse 1: rinsing once using receptor chamber solution (PBS with 0.02% sodium azide and 3% cyclodextrin); Rinse 2: rinsing four times using a methanol/water (85:15) solution. The values for the rinses, cut-up skin, and donor chamber cap were adjusted to correct for the extraction method and RsC1 interference during the OXB assay.
Skin permeation studies of OXB were performed using split-thickness human skin in a Franz diffusion cell with a 0.7 cm2 diffusion area. The skin samples were labeled with the code of the skin donor (n=3, CC, RT, or SL) and the same group of skin donors was used in each experiment. To prepare the skin samples, the cadaver skin was cut into 1.5 cm×1.5 cm pieces, thawed in Petri dishes with PBS at room temperature for 2 h, and then patted dry with Kimwipes before being mounted onto the diffusion cell with the stratum corneum side facing up. PBS containing 0.02% sodium azide as a preservative and 3% cyclodextrin as a solubilizing agent for OXB was used as the solution in the receptor chamber. The TEWL of the skin sample was measured to ensure skin integrity before the permeation study. For TEWL measurements, a vapometer was placed on top of the donor chamber of the diffusion cell and the measurement was repeated until a constant TEWL value was obtained (2-3 measurements, 15 min apart). Only skin samples with TEWL values of <10 g/m2/h were used for permeation experiments.
After the TEWL measurement, the skin in the diffusion cell was allowed to equilibrate for 1 h. During this equilibration period, the skin surface was maintained at 32±1° C. The receptor medium was stirred with a magnetic stirrer at 600 rpm to ensure uniform mixing. The permeation study was initiated by applying 2 mg/cm2 of the test formulation on the skin surface in the diffusion cell. The dose of 2 mg/cm2 was selected based on FDA guidelines. The test formulations were 6% OXB and 6% OXB+RsC1 (1:1) in ethanol. At 0, 3, 6, 10, 12, and 24 h after dosing, 0.5 mL samples were withdrawn from the receptor chamber and immediately replaced with the same volume of fresh PBS solution to maintain a constant receptor solution volume. At the end of the experiment, the residual formulation in the donor compartment was recovered by rinsing once with the receptor chamber solution (PBS with 0.02% sodium azide and 3% cyclodextrin) and four times with methanol/water (85:15) solution (each time with 0.5 ml for 30 s). The treated areas were then dried with Kimwipes. The donor chamber cap and gasket were soaked in 5 ml of methanol/water (85:15) solution for 30 min. The skin was then removed from the diffusion cell, cut into small pieces, and extracted with 4×1 ml of methanol/water (85:15) solution. Blank skin samples were used as the control. The samples collected from the receptor chamber, the rinses, and skin extraction were centrifuged (3000×g for 15 min), and OXB content in the supernatant was determined using HPLC. Statistical analysis was performed using the Student's unpaired t-test and p<0.05 was considered significant.
The HPLC assay was conducted using a Shimadzu HPLC system (Shimadzu Scientific Instruments, Inc., Addison, IL) with an LC-20 AT pump, an SPD-20A UV-Vis detector, a SL-20A autoinjector, and a Microsorb-MV100-5 C18 column (150×4.6 mm, Agilent Technologies, Santa Clara, CA). The mobile phase was methanol and water at a ratio of 85:15. The flow rate was 0.8 ml/min. […]

| SMILES | Fraction of OXB that can penetrate human skin ([1]; Franz diffusion cell) | Fraction of OXB entering the bloodstream and eliminated through urine [1] | Total OXB recovered, Average (%) (in vitro; human, 24 h, 6 %) | recovery at 24 h, 6 % (in vitro; human, Average total recovery of OXB from the permeation study) | recovery at 24 h, 6 % (in vitro; human, Recovery of OXB, Donor chamber cap, Average (%)) | recovery at 24 h, 6 % (in vitro; human, Recovery of OXB, Rinse 1, Average (%)) | recovery at 24 h, 6 % (in vitro; human, Recovery of OXB, Rinse 2, Average (%)) | recovery at 24 h, 6 % (in vitro; human, Recovery of OXB, Skin cut-up, Average (%)) | Amount of RsC1 permeated through the skin to the receptor chamber (in vitro) |
| --- | --- | --- | --- | --- | --- | --- | --- | --- | --- |
| COc1ccc(C(=O)c2ccccc2)c(O)c1 [OXB, Oxybenzone] | 10% | 0.4% | 70.3% | ~75% | 0.6% | 24% | 22.9% | 2.7% | – |
| CC1c2cc(c(O)cc2O)C(C)c2cc(c(O)cc2O)C(C)c2cc(c(O)cc2O)C(C)c2cc1c(O)cc2O (stereo not drawn) [RsC1, C-methylresorcin[4]arene] | – | – | – | – | – | – | – | – | negligible |
